Read-outs that look alike come from different tables or passages of the source.
Legend:
[1] = tested on: purified secondary alcohol dehydrogenase from Pichia sp. NRRL Y-11,328; assay: Substrate specificity, electron acceptor and stoichiometry of purified yeast SADH; type: biochemical; conditions: examined spectrophotometrically
[2] = tested on: cell extract of Pichia sp. NRRL-Y-11,328; assay: Oxidation of secondary alcohols to methylketone by cell extracts of yeasts; type: biochemical; conditions: methanol-grown; cell extract + NAD^+; sec. alcohol to methyl ketone; gas chromatography
[3] = tested on: cell-free soluble extract of Methylosinus trichosporium OB3b (NRRL B-11,196); conditions: NAD added
Experimental: (§1) To prepare the cell-free secondary alcohol dehydrogenous (SADH) system, the washed cells were disrupted with a Wave Energy Ultrasonic Oscillator, Model W201 (Wave Energy System, Inc., Newtown, Pa.) and centrifuged at 20,000×g. for 30 minutes. […] The enzyme activity was measured with a fluorescence spectrophotometer (Perkin Elmer, Model MPF 44A) by following the formation of reduced NAD (EX 340 nm, Em 460 nm). The formation of reduced NAD was also followed with an absorption spectrophotometer at 340 nm. The assay system (3 ml.) contained: potassium phosphate buffer pH 7.0; 150 μmol.; NAD 1 μmol.; a given amount of enzyme preparation; and secondary alcohol 10 μmol. The reaction was started by the addition of substrate. One unit of enzyme activity represents the reduction of one μmole NAD per minute. Protein concentrations were determined by the Lowry method as referenced above.
(§2) The experimental procedure for the tests reported in Table XVII were as follows: 1 mg protein of crude extract was added into a 0.5 ml. 0.05 M phosphate buffer (pH 7.0) in a 10-ml. vial. […] The reaction mixture was incubated at 30° C. on a water bath. A 3 μl sample was removed with a syringe at 15 min. of incubation and was assayed with g.l.c. Catalytic activity was also assayed by fluorescence spectrophotometry.

[4] = tested on: cell-free soluble extract of Methylococcus capsulatus CRL M1 (NRRL B-11,219); conditions: NAD added
Experimental: as §1, §2

[5] = tested on: cell-free soluble extract of Methylobacterium organophilium CRL 26 (NRRL B 11,222); conditions: NAD added
Experimental: as §1, §2

[6] = tested on: cell extract of Torulopsis sp. strain A1 NRRL-Y-11,419; assay: Oxidation of secondary alcohols to methylketone by cell extracts of yeasts; type: biochemical
[7] = tested on: Methylococcus capsulatus CRL M1 NRRL B-11,219; assay: Sec. alcohol oxidation by cell suspensions of methanol-grown cells; type: cell-based; conditions: sec. alcohol to methyl ketone
[8] = tested on: Candida utilis ATCC 26387; assay: Oxidation of sec-alcohols to ketones by cell suspensions of yeasts; type: cell-based; conditions: sec-alcohol to methyl ketone
Pichia sp. NRRL-Y-11328 = assay: as above; type: cell-based; conditions: sec-alcohol to methyl ketone
[9] = tested on: cell extract of Kloeckera sp. strain A2 NRRL-Y-11,420; assay: Oxidation of secondary alcohols to methylketone by cell extracts of yeasts; type: biochemical
[10] = tested on: Kloeckera sp. Strain A2 (NRRLY-11,420); assay: Oxidation of sec-alcohols to ketones by cell suspensions of yeasts; type: cell-based; conditions: sec-alcohol to methyl ketone
[11] = tested on: Hansenula polymorpha ATCC 26012; assay: as above; type: cell-based; conditions: sec-alcohol to methyl ketone
[12] = tested on: cell extract of Hansenula polymorpha ATCC 26,012; assay: Oxidation of secondary alcohols to methylketone by cell extracts of yeasts; type: biochemical
[13] = tested on: cell extract of Candida utilis ATCC 26,387; assay: as above; type: biochemical
[14] = tested on: cell-free soluble extract of Pseudomonas sp. CRL 75 ATCC 21439; conditions: growth substrate CH3 OH; NAD added
Experimental: To prepare the cell-free secondary alcohol dehydrogenous (SADH) system, the washed cells were disrupted with a Wave Energy Ultrasonic Oscillator, Model W201 (Wave Energy System, Inc., Newtown, Pa.) and centrifuged at 20,000×g. for 30 minutes. The clear supernatant contained the SADH activity. The enzyme activity was measured with a fluorescence spectrophotometer (Perkin Elmer, Model MPF 44A) by following the formation of reduced NAD (EX 340 nm, Em 460 nm). The formation of reduced NAD was also followed with an absorption spectrophotometer at 340 nm. The assay system (3 ml.) contained: potassium phosphate buffer pH 7.0; 150 μmol.; NAD 1 μmol.; a given amount of enzyme preparation; and secondary alcohol 10 μmol. The reaction was started by the addition of substrate. One unit of enzyme activity represents the reduction of one μmole NAD per minute. Protein concentrations were determined by the Lowry method as referenced above.

[15] = tested on: methane-grown strain Methylococcus capsulatus NRRL B-11,219; assay: Effect of methane on the epoxidation of propylene by a cell suspension; type: cell-based; conditions: in the presence of methane
Excerpt: Both the epoxidation of the C2 -C4 1-alkenes and the hydroxylation of methane with the cell suspensions were inhibited by various metal-binding and metal-chelating agents, indicating the involvement of metal(s)-containing enzyme system(s). […] The epoxidation of propylene to propylene oxide by a cell suspension of methane-grown strain Methylococcus capsulatus NRRL B-11,219 was inhibited (50%) in the presence of the hydroxylation substrate, methane (Table XV). […] It is likely that the methane mono-oxygenase enzyme system catalyzes both the epoxidation of alkene and the hydroxylation of methane. May and Abbott publications, supra, have reported that the ω-hydroxylation system from Pseudomonas oleovorans catalyzed both the epoxidation of 1-octene and the hydroxylation of n-octane.

[16] = tested on: methylotrophic microorganism strains of the present invention grown on methanol; assay: Comparative test with methanol-grown washed cell suspensions; type: cell-based
[17] = tested on: cell-free particulate fractions derived from the methylotrophic microorganisms; assay: Inhibition of conversion of C3 -C6 n-alkanes to sec. alcohols; type: biochemical; conditions: oxygen and NADH present
Excerpt: The conditions for preparing the cell suspensions or the cell-free particulate fractions from methane-grown methylotroph microorganisms is the same as described above.

[18] = 2-butanol as a substrate, spectrophotometrically
[19] = methanol-grown, cell extract + NAD^+, sec. alcohol to methyl ketone, gas chromatography

CCC(C)O (centres unmarked) [2-Butanol]
oxidation by the purified enzyme [1]: catalyzed the oxidation
Conversion Rate [2]: 6.2 μmoles/hr/mg Protein
Conversion Rate 2-butanol to 2-butanone ([3]; growth substrate CH3 OH): 2.4 nmoles/min/mg protein
Conversion Rate 2-butanol to 2-butanone ([3]; growth substrate CH4): 4.5 nmoles/min/mg protein
Conversion Rate 2-butanol to 2-butanone ([4]; growth substrate CH3 OH): 2.0 nmoles/min/mg protein
Conversion Rate 2-butanol to 2-butanone ([4]; growth substrate CH4): 3.2 nmoles/min/mg protein
Conversion Rate 2-butanol to 2-butanone ([5]; growth substrate CH3 OH): 2.5 nmoles/min/mg protein
Conversion Rate 2-butanol to 2-butanone ([5]; growth substrate CH4): 1.8 nmoles/min/mg protein
specific activities [6, 18]: 62 nmoles NAD^+ reduced per min. per mg. protein
Conversion Rate [6, 19]: 4.9 μmoles/hr/mg Protein
Conversion Rates [7]: 2.0 μmoles/hr/mg protein
Conversion Rate ([8]; growth substrate Ethanol): 5.2 μmoles/hr/mg of protein
Conversion Rate ([8]; growth substrate Methanol): 6.8 μmoles/hr/mg of protein
Conversion Rate ([8]; growth substrate Methylamine): 5.0 μmoles/hr/mg of protein
Conversion Rate ([8]; growth substrate Methylformate): 6.2 μmoles/hr/mg of protein
Conversion Rate ([8]; growth substrate Propylamine): 4.2 μmoles/hr/mg of protein
Conversion Rate (Pichia sp. NRRL-Y-11328; growth substrate Ethanol): 6.2 μmoles/hr/mg of protein
Conversion Rate (Pichia sp. NRRL-Y-11328; growth substrate Methanol): 6.8 μmoles/hr/mg of protein
Conversion Rate (Pichia sp. NRRL-Y-11328; growth substrate Methylamine): 5.1 μmoles/hr/mg of protein
Conversion Rate (Pichia sp. NRRL-Y-11328; growth substrate Methylformate): 6.9 μmoles/hr/mg of protein
Conversion Rate (Pichia sp. NRRL-Y-11328; growth substrate Propylamine): 2.1 μmoles/hr/mg of protein
specific activities [9, 18]: 90 nmoles NAD^+ reduced per min. per mg. protein
Conversion Rate [9, 19]: 5.9 μmoles/hr/mg Protein
Conversion Rate ([10]; growth substrate Ethanol): 5.7 μmoles/hr/mg of protein
Conversion Rate ([10]; growth substrate Methanol): 5.9 μmoles/hr/mg of protein
Conversion Rate ([10]; growth substrate Methylamine): 5.4 μmoles/hr/mg of protein
Conversion Rate ([10]; growth substrate Methylformate): 5.9 μmoles/hr/mg of protein
Conversion Rate ([10]; growth substrate Propylamine): 4.2 μmoles/hr/mg of protein
Conversion Rate ([11]; growth substrate Ethanol): 4.8 μmoles/hr/mg of protein
Conversion Rate ([11]; growth substrate Methanol): 5.8 μmoles/hr/mg of protein
Conversion Rate ([11]; growth substrate Methylamine): 4.5 μmoles/hr/mg of protein
Conversion Rate ([11]; growth substrate Methylformate): 5.2 μmoles/hr/mg of protein
Conversion Rate ([11]; growth substrate Propylamine): 4.0 μmoles/hr/mg of protein
specific activities [12, 18]: 85 nmoles NAD^+ reduced per min. per mg. protein
Conversion Rate [12, 19]: 5.2 μmoles/hr/mg Protein
specific activities [13, 18]: 78 nmoles NAD^+ reduced per min. per mg. protein
Conversion Rate [13, 19]: 4.92 μmoles/hr/mg Protein
Conversion Rate 2-butanol to 2-butanone [14]: 25.0 nmoles/min/mg protein

C [Methane]
inhibition of the epoxidation of propylene to propylene oxide [15]: 50%
hydroxylation / epoxidation ability [16]: did not possess the ability

C=CC [Propylene]
inhibition of conversion of n-alkanes to sec. alcohols [17]: inhibited

From patent publication US4347319A, “Microbiological epoxidation process” (priority 1980, dated 1982)
